Assay results taken from patent US6335331B1, “Pseudopolymorphic forms of 2-[2-[4-[Bis (4-fluorophenyl) methyl]-1-piperazinyl]ethoxy]acetic acid dihydrochloride” (UCB, S.A., priority 1997, dated 2002).

What was measured:
[1] = Intrinsic dissolution rate (static disc method, USP XXII apparatus No 2); type: physicochemical; details: 70:30 (w/w) with AVICEL PH102, dihydrochloride
Description: Drug bioavailability studies have shown that an intrinsic dissolution rate (IDR) lower than 0.1 mg/cm^2/min can often be predictive of a dissolution rate-limited absorption in humans. Thus, IDR is a predictive parameter of bioavailability. This parameter depends upon various physicochemical properties including, the chemical form (salt, solvate), the crystal form, the solubility and wettability. The determination of IDR was performed in the following way. The Form to be tested was homogeneously ground and mixed with microcrystalline cellulose AVICEL PH102 (dry binder which improves tableting properties). The substance:excipient mix ratio was 70:30 (w/w). Aliquots (500 mg) were compressed into pellets by compression until a final applied load of 10 tons in order to obtain a constant and known surface area of zero porosity. The dissolution experiments were carried out at 37° C. using 500 ml of aqueous media at three different pH values intended to cover the expected range of human gastrointestinal pH values, i.e. 1.2, 4.0 and 7.5. Uniform and reproducible haemodynamic conditions were obtained by carrying out the test with USP XXII apparatus N°2 (United States Pharmacopoeia, 1990) in which a paddle is used as stirring element (50 rpm) and the pellet assembly is placed at the bottom of the vessel (static disc method). Statistically assessed (p<0.05) linear portions of all replicate dissolution curves were selected for subsequent IDR calculation.

[2] = Storage stability of 1:1 (w/w) binary mixtures with D-sorbitol: sorbitol-efletirizine monoester by HPLC-UV; type: physicochemical; details: for sorbitol-efletirizine monoester, Relative % area: 1:1 (w/w) with D-sorbitol; for monoester formation (in words): pellet with D-sorbitol
Description: This is illustrated in the results of the following study, aimed at examining the stabilities of the two pseudopolymorphic forms in the presence of D-sorbitol during storage under stress temperature conditions, that is, in sealed vials at 40 or 60° C. In this study, HPLC analysis of several samples was performed: Form A, Form B, D-sorbitol and 1:1 (w/w) mixtures of Form A or Form B with D-sorbitol. Each sample was homogeneously ground and mixed. Aliquots (500 mg) were compressed into 13 mm diameter pellets at an applied load of 1 ton which a usual compression strength for pharmaceutical tablets. Each compact pellet was immediately ground into a fine powder, and an aliquot was stored in a tightly sealed glass vial at 40 or 60° C. Samples were analysed by HPLC after 0, 4, 16 and 24 weeks. p In a first series of analyses, HPLC/UV spectra were collected using a Kontron HPLC system type 300 fitted with a UV detector. The column used was Supercosil RP—ABZ 250×4.6 mm I.D. 5 μm particle size, and the mobile phase used consisted of an acetonitrile/water 25:75 (v/v) mixture, the water containing 770 mg/l ammonium acetate. Samples to be analysed were dissolved in acetonitrile/water 25:75 (v/v) at a concentration of 2 mg/ml, and 10 μl of these solutions were injected in the HPLC system. Upon comparing the HPLC spectra obtained for the individual components and for the binary mixtures, new peaks detected were considered indicative of an interaction with D-sorbitol. When present, these new peaks were quantified and further identified by HPLC/MS analysis, using a VG Quattro spectrometer coupled onto a Kontron HPLC system. In HPLC/MS, the new peaks observed for the binary mixtures were identified as a sorbitol-efletirizine monoester and dehydrated forms of a sorbitol-efletirizine monoester. The latter appeared after longer storage periods than the former. […] Relative quantification of monoester was performed by HPLC-UV analysis.

[3] = Storage stability of the pure forms under stress temperature, HPLC/UV; type: physicochemical; details: pure form, 40° or 60° C., 4, 16 or 24 weeks
Description: This is illustrated in the results of the following study, aimed at examining the stabilities of the two pseudopolymorphic forms in the presence of D-sorbitol during storage under stress temperature conditions, that is, in sealed vials at 40 or 60° C. In this study, HPLC analysis of several samples was performed: Form A, Form B, D-sorbitol and 1:1 (w/w) mixtures of Form A or Form B with D-sorbitol. Each sample was homogeneously ground and mixed. Aliquots (500 mg) were compressed into 13 mm diameter pellets at an applied load of 1 ton which a usual compression strength for pharmaceutical tablets. Each compact pellet was immediately ground into a fine powder, and an aliquot was stored in a tightly sealed glass vial at 40 or 60° C. Samples were analysed by HPLC after 0, 4, 16 and 24 weeks. p In a first series of analyses, HPLC/UV spectra were collected using a Kontron HPLC system type 300 fitted with a UV detector. The column used was Supercosil RP—ABZ 250×4.6 mm I.D. 5 μm particle size, and the mobile phase used consisted of an acetonitrile/water 25:75 (v/v) mixture, the water containing 770 mg/l ammonium acetate. Samples to be analysed were dissolved in acetonitrile/water 25:75 (v/v) at a concentration of 2 mg/ml, and 10 μl of these solutions were injected in the HPLC system. […] Pure D-sorbitol was not detected in HPLC/UV. […]

[4] = Clinical pharmacology study in urticaria, atopic dermatitis and prurit; type: in vivo; details: clinical pharmacology study (to be published)
histamine H1-receptor = histamine H1-receptor (Homo sapiens, UniProt P35367); details: in vitro; cited from earlier work
Sequence of histamine H1-receptor (P35367 whole entry, species assumed): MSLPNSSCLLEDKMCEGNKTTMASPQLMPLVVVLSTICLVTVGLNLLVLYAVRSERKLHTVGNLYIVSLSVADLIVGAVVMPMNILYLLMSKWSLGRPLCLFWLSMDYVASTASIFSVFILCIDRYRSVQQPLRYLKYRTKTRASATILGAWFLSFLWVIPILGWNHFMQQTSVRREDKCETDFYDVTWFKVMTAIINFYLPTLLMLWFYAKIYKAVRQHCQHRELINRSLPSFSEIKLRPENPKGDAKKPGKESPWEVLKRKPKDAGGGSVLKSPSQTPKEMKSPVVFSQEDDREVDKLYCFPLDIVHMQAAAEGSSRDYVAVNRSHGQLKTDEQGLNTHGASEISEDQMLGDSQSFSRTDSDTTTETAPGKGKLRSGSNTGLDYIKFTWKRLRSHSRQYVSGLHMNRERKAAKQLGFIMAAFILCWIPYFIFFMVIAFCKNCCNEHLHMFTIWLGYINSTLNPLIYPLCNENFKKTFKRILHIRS

[5] = 40° C., 4 weeks, dihydrochloride
[6] = 40° C., 16 weeks, dihydrochloride
[7] = 40° C., 24 weeks, dihydrochloride
[8] = 60° C., 0 weeks, dihydrochloride
[9] = 60° C., 4 weeks, dihydrochloride
[10] = 60° C., 16 weeks, dihydrochloride
[11] = 60° C., 24 weeks, dihydrochloride
[12] = storage at 60° C., dihydrochloride

SMILES | Intrinsic dissolution rate ([1]; pH 1.2, 37° C.) [mg/cm^2/min] | Intrinsic dissolution rate ([1]; pH 4.0, 37° C.) [mg/cm^2/min] | Intrinsic dissolution rate ([1]; pH 7.5, 37° C.) [mg/cm^2/min] | sorbitol-efletirizine monoester, Relative % area ([2]; 40° C., 0 weeks) [Relative % area] | sorbitol-efletirizine monoester, Relative % area [2, 5] [Relative % area] | sorbitol-efletirizine monoester, Relative % area [2, 6] [Relative % area] | sorbitol-efletirizine monoester, Relative % area [2, 7] [Relative % area] | sorbitol-efletirizine monoester, Relative % area [2, 8] [Relative % area] | sorbitol-efletirizine monoester, Relative % area [2, 9] [Relative % area] | sorbitol-efletirizine monoester, Relative % area [2, 10] [Relative % area] | sorbitol-efletirizine monoester, Relative % area [2, 11] [Relative % area] | monoester formation (in words) ([2]; storage at 40° C.) | monoester formation (in words) [2, 12] | modifications of the HPLC/UV spectrograms after storage [3] | results in the treatment of urticaria, atopic dermatitis and prurit [4] | affinity for H1-receptors (histamine H1-receptor) | selectivity for H1-receptors (histamine H1-receptor)
Cl.Cl.O=C(O)COCCN1CCN(C(c2ccc(F)cc2)c2ccc(F)cc2)CC1 [Form B, 2-[2-[4-[bis(4-fluorophenyl)methyl]-1-piperazinyl]ethoxy]acetic acid dihydrochloride] | 4.05 ± 0.64 | 3.58 ± 0.50 | 3.31 ± 0.04 | 0 | 0.13 | 0.16 | 0.23 | 0.04 | 0.87 | 2.69 | 2.95 | quite low | very significant | no modifications of the spectrograms were observed | – | – | –
Cl.Cl.O=C(O)COCCN1CCN(C(c2ccc(F)cc2)c2ccc(F)cc2)CC1 [Form A, 2-[2-[4-[bis(4-fluorophenyl)methyl]-1-piperazinyl]ethoxy]acetic acid dihydrochloride] | 5.04 ± 0.34 | 5.43 ± 0.32 | 4.52 ± 0.34 | 0 | 0.04 | 0.07 | 0.13 | 0.03 | 0.29 | 0.45 | 0.46 | quite low | quite low | no modifications of the spectrograms were observed | – | – | –
O=C(O)COCCN1CCN(C(c2ccc(F)cc2)c2ccc(F)cc2)CC1 [efletirizine, 2-[2-[4-[Bis(4-fluorophenyl)methyl]-1-piperazinyl]ethoxy]acetic acid] | – | – | – | – | – | – | – | – | – | – | – | – | – | – | unexpectedly good results | high affinity | selectivity
